Test results published in patent US20210321985A1, “COMPOSITIONS AND METHODS FOR TARGETED CONTRAST AGENTS FOR MOLECULAR IMAGING” (ARIZONA BOARD OF REGENTS ON BEHALF OF THE UNIVERSITY OF …, priority 2016, published 2021).

Experiment: Dissolution time of a 2.5-micron encapsulated microbubble in air-saturated liquid
Assay type: physicochemical
Conditions: for Dissolution time: 2.5-micron encapsulated microbubble, air-saturated liquid

stability of microbubbles relative to microbubbles containing C5F12 (from Table 4) | Dissolution time [days] | stability of microbubbles relative to microbubbles containing C3F8 (from Table 4) | stability of microbubbles relative to microbubbles containing C4F10 (from Table 4) | Structure (SMILES)
only minimal increase in stability | – | – | – | FC(F)(F)C(F)(F)C(F)(F)C(F)(F)C(F)(F)C(F)(F)F [Perfluorohexane]
– | 17 | ~14,000 times | about five | FC(F)(F)C(F)(F)C(F)(F)C(F)(F)C(F)(F)F [Perfluoropentane (DDFP), Perfluoropentane]
– | 0.0292 | – | – | FC(F)(F)C(F)(F)C(F)(F)F [Perfluoropropane]
– | 3.46 | – | – | FC(F)(F)C(F)(F)C(F)(F)C(F)(F)F [Perfluorobutane]
